Laboratory results taken from article PMC7170919, “The chloroalkaloid (−)-acutumine is biosynthesized via a Fe(II)- and 2-oxoglutarate-dependent halogenase in Menispermaceae plants” (Nature Communications, 2020).

How the values were obtained:
Assay type in all cases: biochemical
SaDAH [1] = target: T1, SaDAH (Sinomenium acutum, UniProt A0A6M3RD65); test: LC-MS quantification of (−)-acutumine formed; details: 2OG 500 µM, NaCl 1 mM, ascorbate 5 mM, (NH4)2Fe(SO4)2 2 mM; 30 nM enzyme, 10 min; chlorination
T1 construct: codon-optimized, N-terminal 8xHis-TEV tag (pHis8-4) cleaved, E. coli BL21(DE3)

McDAH = target: T2, McDAH (Menispermum canadense, UniProt A0A6M3RHU8); test: in vitro enzyme assay, LC-MS; details: 2OG-dependent chlorination, 1 mM NaCl
T2 sequence (A0A6M3RHU8 1-351): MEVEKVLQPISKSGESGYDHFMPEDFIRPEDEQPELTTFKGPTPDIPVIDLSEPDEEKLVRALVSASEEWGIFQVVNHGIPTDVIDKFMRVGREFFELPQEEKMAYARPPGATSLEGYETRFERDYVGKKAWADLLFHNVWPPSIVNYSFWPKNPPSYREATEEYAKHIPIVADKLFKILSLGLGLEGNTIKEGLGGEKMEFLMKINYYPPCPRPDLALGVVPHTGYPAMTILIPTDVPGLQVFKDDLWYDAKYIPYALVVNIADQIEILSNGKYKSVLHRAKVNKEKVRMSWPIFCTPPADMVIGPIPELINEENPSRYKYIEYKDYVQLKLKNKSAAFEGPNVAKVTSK

SaDAH [2] = target: T3, SaDAH (Sinomenium acutum, UniProt A0A6M3RD65, G226D); test: in vitro enzyme assay, LC-HRAM-MS; details: 2OG 500 µM, NaCl 1 mM, Fe(II) 2 mM, ascorbate 5 mM, Tris pH 8.0, room temperature; hydroxylation
T3 construct: codon-optimized, N-terminal 8xHis-TEV tag (pHis8-4) cleaved, E. coli BL21(DE3)
T3 sequence (A0A6M3RD65 entry or part of it G226D): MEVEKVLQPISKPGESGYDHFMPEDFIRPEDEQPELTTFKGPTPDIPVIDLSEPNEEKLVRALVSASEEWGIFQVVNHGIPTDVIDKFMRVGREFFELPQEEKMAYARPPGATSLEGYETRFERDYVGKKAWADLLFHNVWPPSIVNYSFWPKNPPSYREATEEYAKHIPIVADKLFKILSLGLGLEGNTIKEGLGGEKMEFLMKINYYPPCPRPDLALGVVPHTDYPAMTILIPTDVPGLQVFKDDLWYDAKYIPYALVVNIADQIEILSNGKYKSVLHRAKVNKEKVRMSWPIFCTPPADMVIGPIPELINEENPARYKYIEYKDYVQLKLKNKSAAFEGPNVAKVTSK

T1 sequence (A0A6M3RD65 entry or part of it): as the sequence (A0A6M3RD65 entry or part of it G226D) above, with D226G counted along it

COC1=CC(=O)C2(CCC34C(OC)=C(OC)C(=O)CC23CCN4C)C1O (single isomer, unassigned; (-)) [compound 5, (−)-dechloroacutumine]
Km (SaDAH [1]): 18.4 ± 7.13 µM
in vitro enzyme assay, LC-MS (McDAH): Recombinant McDAH exhibits identical activity to SaDAH
in vitro enzyme assay, LC-HRAM-MS (SaDAH [2]): exhibits exclusive (−)-dechloroacutumine hydroxylase activity to give the hydroxylation product 11-hydroxy-dechloroacutumine
